The results in this text go back to ChEMBL document CHEMBL3991601, “The target landscape of clinical kinase drugs” (Science, 2017).

Experiment [1] concerns the target Mitogen-activated protein kinase kinase kinase 20 (Homo sapiens, UniProt Q9NYL2).
Experiment [2] addresses Cyclin-dependent kinase 13 (Homo sapiens, UniProt Q14004).
Experiment [3] deals with Casein kinase II subunit alpha' (Homo sapiens, UniProt P19784).
The target of another experiment is T1, Heme oxygenase 2 (Homo sapiens, UniProt P30519).
T1 sequence (P30519 whole entry): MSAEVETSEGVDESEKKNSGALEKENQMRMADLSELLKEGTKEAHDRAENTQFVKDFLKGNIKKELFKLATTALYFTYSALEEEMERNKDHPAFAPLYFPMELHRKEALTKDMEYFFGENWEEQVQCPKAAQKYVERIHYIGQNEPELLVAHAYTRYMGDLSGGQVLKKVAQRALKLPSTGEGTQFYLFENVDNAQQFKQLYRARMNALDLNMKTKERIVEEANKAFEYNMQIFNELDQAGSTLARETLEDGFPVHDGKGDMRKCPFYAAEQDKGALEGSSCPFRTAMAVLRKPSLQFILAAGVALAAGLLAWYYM

The target in experiment [4] is cAMP-dependent protein kinase type II-alpha regulatory subunit (Homo sapiens, UniProt P13861).
Sequence of cAMP-dependent protein kinase type II-alpha regulatory subunit (P13861 whole entry): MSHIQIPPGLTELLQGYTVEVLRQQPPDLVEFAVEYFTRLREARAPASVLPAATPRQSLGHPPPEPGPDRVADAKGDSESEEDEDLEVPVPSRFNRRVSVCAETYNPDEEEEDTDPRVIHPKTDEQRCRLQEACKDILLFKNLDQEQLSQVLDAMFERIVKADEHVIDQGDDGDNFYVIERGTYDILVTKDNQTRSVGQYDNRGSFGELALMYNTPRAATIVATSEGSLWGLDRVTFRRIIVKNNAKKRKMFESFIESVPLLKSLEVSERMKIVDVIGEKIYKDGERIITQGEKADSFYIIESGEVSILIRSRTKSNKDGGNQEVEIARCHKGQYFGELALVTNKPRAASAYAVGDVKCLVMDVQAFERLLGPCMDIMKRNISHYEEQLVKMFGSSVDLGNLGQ
Another experiment has as its target TGF-beta receptor type-2 (Homo sapiens, UniProt P37173).
Experiment [5] addresses T2, Exosome RNA helicase MTR4 (Homo sapiens, UniProt P42285).
T2 sequence (P42285 whole entry): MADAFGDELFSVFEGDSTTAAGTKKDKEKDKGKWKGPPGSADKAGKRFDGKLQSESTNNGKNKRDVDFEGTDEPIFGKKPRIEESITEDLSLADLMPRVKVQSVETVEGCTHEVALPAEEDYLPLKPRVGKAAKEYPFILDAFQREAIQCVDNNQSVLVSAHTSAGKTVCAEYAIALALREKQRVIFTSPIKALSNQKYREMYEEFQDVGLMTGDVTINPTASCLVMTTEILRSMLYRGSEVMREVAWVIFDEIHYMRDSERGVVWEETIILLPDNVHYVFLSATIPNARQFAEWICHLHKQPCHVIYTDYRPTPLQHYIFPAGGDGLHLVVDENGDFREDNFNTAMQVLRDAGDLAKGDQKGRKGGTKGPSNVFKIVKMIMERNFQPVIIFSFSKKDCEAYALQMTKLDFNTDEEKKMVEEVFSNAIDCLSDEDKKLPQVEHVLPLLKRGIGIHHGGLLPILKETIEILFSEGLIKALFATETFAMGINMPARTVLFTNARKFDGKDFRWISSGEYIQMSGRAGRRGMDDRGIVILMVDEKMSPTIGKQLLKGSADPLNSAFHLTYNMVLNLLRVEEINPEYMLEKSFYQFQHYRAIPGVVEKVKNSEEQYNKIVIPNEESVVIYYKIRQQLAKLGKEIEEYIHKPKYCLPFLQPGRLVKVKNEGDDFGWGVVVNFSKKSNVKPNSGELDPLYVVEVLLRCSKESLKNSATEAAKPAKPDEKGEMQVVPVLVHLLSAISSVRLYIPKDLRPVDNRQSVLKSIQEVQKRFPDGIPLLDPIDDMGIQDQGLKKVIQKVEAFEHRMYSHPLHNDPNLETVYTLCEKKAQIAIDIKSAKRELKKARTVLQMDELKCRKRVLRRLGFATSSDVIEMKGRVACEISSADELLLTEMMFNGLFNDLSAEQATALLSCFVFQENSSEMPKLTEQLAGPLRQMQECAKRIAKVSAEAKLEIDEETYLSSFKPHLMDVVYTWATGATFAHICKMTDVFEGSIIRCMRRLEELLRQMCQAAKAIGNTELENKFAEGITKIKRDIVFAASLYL

A further experiment has as its target T3, Ephrin type-B receptor 2 (Homo sapiens, UniProt P29323).
T3 sequence (P29323 whole entry): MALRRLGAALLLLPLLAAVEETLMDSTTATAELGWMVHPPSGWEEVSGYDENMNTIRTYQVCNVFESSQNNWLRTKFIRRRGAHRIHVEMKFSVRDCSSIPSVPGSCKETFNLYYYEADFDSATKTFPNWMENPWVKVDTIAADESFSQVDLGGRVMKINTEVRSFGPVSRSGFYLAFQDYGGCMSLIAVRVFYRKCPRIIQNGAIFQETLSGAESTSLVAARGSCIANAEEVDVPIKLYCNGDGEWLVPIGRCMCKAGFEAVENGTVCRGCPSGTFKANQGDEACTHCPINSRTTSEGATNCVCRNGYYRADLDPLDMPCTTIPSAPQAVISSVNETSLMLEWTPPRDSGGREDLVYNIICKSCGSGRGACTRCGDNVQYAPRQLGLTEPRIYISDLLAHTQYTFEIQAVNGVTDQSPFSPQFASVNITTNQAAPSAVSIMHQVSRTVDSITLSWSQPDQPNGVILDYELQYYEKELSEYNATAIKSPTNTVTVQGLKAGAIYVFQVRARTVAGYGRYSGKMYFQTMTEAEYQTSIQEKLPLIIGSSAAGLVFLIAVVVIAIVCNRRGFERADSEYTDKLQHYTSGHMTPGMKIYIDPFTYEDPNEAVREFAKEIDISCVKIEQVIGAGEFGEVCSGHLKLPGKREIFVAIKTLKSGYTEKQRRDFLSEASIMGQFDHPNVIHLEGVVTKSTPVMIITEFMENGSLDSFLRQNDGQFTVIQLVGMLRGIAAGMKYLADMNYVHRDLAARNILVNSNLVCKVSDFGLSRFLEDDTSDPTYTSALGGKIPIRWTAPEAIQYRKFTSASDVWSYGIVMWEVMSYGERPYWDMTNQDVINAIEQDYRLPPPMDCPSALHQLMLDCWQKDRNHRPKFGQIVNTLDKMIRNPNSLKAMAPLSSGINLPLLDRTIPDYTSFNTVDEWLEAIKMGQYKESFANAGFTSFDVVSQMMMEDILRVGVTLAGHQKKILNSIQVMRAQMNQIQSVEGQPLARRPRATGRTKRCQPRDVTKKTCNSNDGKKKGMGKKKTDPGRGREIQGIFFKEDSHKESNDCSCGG

Structures can show the parent of a compound that is named as a salt. Activity calls are given as the source filed them. Cut-off read from the data, not from the text of the source, for most assays here: actives have a measured Kd and inactives only a lower limit. A value given as a limit tells only on which side of the number the result lay.
Note: in the data inactive means no Kd found up to 30 µM.

Sequence of Mitogen-activated protein kinase kinase kinase 20 (Q9NYL2 whole entry): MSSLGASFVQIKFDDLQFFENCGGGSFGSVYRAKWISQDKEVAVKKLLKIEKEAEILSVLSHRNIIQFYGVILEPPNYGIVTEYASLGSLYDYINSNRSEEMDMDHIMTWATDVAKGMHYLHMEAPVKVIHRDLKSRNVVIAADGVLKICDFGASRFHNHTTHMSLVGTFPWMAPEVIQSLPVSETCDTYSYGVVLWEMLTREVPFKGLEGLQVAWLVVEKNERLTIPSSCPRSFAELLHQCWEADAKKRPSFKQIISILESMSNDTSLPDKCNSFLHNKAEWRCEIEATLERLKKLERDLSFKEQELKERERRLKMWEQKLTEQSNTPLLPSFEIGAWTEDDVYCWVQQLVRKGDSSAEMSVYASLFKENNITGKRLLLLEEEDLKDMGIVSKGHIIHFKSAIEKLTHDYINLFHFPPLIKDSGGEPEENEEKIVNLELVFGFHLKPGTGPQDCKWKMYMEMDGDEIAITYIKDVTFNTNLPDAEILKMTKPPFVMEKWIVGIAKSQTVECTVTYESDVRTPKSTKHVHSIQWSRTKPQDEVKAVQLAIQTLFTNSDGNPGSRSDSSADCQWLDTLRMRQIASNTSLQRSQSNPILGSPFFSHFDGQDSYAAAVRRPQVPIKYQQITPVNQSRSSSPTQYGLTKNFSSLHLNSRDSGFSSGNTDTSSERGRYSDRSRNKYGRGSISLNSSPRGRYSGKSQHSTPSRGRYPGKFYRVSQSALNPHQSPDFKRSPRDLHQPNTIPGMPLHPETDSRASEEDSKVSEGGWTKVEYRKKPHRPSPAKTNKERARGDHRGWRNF
Sequence of Casein kinase II subunit alpha' (P19784 whole entry): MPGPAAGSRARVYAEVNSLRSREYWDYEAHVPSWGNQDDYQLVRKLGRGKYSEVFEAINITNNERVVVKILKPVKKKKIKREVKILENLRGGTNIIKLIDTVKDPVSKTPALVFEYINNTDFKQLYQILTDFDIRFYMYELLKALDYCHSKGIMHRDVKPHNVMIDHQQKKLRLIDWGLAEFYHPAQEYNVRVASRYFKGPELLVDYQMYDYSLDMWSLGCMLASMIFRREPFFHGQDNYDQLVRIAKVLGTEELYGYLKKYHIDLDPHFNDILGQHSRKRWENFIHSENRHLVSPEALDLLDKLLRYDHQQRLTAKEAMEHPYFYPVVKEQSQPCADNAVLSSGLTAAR
Sequence of TGF-beta receptor type-2 (P37173 whole entry): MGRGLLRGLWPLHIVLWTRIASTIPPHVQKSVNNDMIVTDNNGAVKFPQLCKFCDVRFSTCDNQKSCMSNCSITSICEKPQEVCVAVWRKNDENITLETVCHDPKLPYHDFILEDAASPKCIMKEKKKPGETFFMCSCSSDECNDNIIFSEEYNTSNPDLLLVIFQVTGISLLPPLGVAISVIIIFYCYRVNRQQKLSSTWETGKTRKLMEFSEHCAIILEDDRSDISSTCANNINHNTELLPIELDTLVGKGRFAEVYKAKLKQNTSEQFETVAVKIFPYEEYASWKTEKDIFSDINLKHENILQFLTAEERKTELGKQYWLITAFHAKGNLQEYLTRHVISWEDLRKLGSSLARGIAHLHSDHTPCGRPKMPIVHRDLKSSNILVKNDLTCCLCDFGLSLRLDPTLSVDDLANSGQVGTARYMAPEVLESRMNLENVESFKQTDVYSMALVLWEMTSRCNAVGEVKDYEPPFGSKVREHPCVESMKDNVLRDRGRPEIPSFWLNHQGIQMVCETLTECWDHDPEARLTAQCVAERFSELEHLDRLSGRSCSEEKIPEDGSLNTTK
Sequence of Cyclin-dependent kinase 13 (Q14004 whole entry): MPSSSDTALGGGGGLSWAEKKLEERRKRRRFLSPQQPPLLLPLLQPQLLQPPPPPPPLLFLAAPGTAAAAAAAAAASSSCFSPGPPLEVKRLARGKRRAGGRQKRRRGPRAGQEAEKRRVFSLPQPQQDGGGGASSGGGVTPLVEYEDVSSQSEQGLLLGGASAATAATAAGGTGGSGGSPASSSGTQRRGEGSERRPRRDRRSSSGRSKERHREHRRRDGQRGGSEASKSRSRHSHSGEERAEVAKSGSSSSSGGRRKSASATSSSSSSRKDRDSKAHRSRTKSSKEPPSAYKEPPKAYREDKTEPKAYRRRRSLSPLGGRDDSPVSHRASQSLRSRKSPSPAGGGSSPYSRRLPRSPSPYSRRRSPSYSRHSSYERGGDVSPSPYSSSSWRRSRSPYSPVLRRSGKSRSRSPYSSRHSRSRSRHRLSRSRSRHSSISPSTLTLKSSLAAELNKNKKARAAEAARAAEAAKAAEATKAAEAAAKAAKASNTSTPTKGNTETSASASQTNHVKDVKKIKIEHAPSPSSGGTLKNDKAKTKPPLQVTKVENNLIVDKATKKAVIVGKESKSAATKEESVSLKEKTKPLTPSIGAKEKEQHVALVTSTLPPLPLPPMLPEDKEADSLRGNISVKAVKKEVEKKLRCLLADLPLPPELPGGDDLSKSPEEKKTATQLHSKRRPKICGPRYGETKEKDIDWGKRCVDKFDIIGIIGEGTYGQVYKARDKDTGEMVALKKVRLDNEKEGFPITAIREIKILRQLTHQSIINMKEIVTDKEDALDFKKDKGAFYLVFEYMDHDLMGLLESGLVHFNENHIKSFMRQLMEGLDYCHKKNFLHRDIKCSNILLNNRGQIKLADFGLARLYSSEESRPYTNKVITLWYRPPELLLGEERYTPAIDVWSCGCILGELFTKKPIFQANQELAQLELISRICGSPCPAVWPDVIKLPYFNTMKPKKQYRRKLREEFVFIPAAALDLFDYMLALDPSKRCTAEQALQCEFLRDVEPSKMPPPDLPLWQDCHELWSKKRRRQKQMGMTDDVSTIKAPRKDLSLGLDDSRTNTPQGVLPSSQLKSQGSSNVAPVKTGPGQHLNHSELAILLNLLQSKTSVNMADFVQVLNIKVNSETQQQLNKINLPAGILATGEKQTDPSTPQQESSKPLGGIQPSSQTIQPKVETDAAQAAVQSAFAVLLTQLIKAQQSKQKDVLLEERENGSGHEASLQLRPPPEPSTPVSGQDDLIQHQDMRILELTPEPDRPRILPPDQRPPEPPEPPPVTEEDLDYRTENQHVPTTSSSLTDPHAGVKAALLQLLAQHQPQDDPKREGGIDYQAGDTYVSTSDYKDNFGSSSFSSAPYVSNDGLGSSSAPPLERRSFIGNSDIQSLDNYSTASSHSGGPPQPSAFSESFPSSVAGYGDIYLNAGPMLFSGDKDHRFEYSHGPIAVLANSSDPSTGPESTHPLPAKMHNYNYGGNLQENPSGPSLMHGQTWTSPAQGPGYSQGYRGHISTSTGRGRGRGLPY

Consider `Cn1cnc2c(F)c(Nc3ccc(Br)cc3F)c(C(=O)NOCCO)cc21` [BINIMETINIB], for which the Kd (in experiment [1]; in experiment [2]; in experiment [3]; on Heme oxygenase 2; in experiment [4]; at TGF-beta receptor type-2) was > 30 µM (inactive) in each case. Moreover, the Kd (in experiment [5]; at Ephrin type-B receptor 2) was > 30 µM (inactive) in each case.

On to `CCn1c(C(=O)N(C2CC2)C2CC2)cc2c3c(ncn3C)c(Nc3cc(C)n(C)n3)nc21` [BMS-911543], for which the Kd (in experiment [1]; in experiment [2]; in experiment [3]; at Heme oxygenase 2; in experiment [4]; on TGF-beta receptor type-2) was > 30 µM (inactive) each time. The Kd (in experiment [5]; at Ephrin type-B receptor 2) was > 30 µM (inactive) in each case.

With `COc1cc2ncnc(Oc3cccc(NC(=O)Nc4cc(C(C)(C)C(F)(F)F)on4)c3)c2cc1OC` [CEP-32496], the dissociation constant Kd was 0.998 µM (active) in experiment [1]; > 30 µM (inactive) in experiment [2]; > 30 µM (inactive) in experiment [3]; > 30 µM (inactive) on Heme oxygenase 2; > 30 µM (inactive) in experiment [4]; > 30 µM (inactive) at TGF-beta receptor type-2. For the same compound, the Kd (in experiment [5]; at Ephrin type-B receptor 2) was > 30 µM (inactive) in each case.

Consider `Cc1cc(Nc2ncc(Cl)c(Nc3ccccc3S(=O)(=O)C(C)C)n2)c(OC(C)C)cc1C1CCNCC1` [CERITINIB], for which the Kd (in experiment [1]; in experiment [2]; in experiment [3]; at Heme oxygenase 2; in experiment [4]; on TGF-beta receptor type-2) was > 30 µM (inactive) each time. For the same compound, the Kd (in experiment [5]; at Ephrin type-B receptor 2) was > 30 µM (inactive) each time.

On to `COc1c(OCCCN2CCOCC2)ccc2c1N=C(NC(=O)c1cnc(N)nc1)N1CCN=C21` [COPANLISIB], for which the Kd (in experiment [1]; in experiment [2]; in experiment [3]; on Heme oxygenase 2; in experiment [4]; on TGF-beta receptor type-2) was > 30 µM (inactive) in each case. Moreover, the Kd (in experiment [5]; on Ephrin type-B receptor 2) was > 30 µM (inactive) throughout.

Turning to `COCC(=O)NC/C=C/c1ccc2ncnc(Nc3ccc(Oc4ccc(C)nc4)c(C)c3)c2c1` [CP-724714], the Kd (in experiment [1]; in experiment [2]; in experiment [3]; at Heme oxygenase 2; in experiment [4]; on TGF-beta receptor type-2) was > 30 µM (inactive) throughout. Moreover, the Kd (in experiment [5]; on Ephrin type-B receptor 2) was > 30 µM (inactive) each time.

As for `C#Cc1cccc(Nc2ncnc3cc(OC)c(OCCCCCCC(=O)NO)cc23)c1` [CUDC-101], the Kd (in experiment [1]; in experiment [2]; in experiment [3]; on Heme oxygenase 2; in experiment [4]; at TGF-beta receptor type-2) was > 30 µM (inactive) throughout. For the same compound, the Kd (in experiment [5]; at Ephrin type-B receptor 2) was > 30 µM (inactive) throughout.

Take `CCS(=O)(=O)N1CCN(c2ccc(Nc3ncc(C(N)=O)c(NC4CC4)n3)cc2)CC1` [Cerdulatinib Hydrochloride]: the Kd is > 30 µM (inactive) in experiment [1]; > 30 µM (inactive) in experiment [2]; 16.3 µM (active) in experiment [3]; > 30 µM (inactive) at Heme oxygenase 2; > 30 µM (inactive) in experiment [4]; > 30 µM (inactive) at TGF-beta receptor type-2. In addition, the Kd (in experiment [5]; at Ephrin type-B receptor 2) was > 30 µM (inactive) each time.

Take `O=C(Nc1nc2cccc(-c3ccc(CN4CCS(=O)(=O)CC4)cc3)n2n1)C1CC1` [FILGOTINIB]: the Kd (in experiment [1]; in experiment [2]; in experiment [3]; on Heme oxygenase 2; in experiment [4]; on TGF-beta receptor type-2) was > 30 µM (inactive) each time. For the same compound, the Kd (in experiment [5]; at Ephrin type-B receptor 2) was > 30 µM (inactive) throughout.

`Cc1cccc(-c2nn3c(c2-c2ccnc4ccc(C(N)=O)cc24)CCC3)n1` [GALUNISERTIB]: the Kd (in experiment [1]; in experiment [2]; in experiment [3]; at Heme oxygenase 2; in experiment [4]; at TGF-beta receptor type-2) was > 30 µM (inactive) in each case. In addition, the Kd (in experiment [5]; on Ephrin type-B receptor 2) was > 30 µM (inactive) in each case.

With `COc1ccc(S(=O)(=O)N(C(C)=O)c2ccccc2/C=C/c2cc[n+]([O-])cc2)cc1` [HMN-214], the Kd (in experiment [1]; in experiment [2]; in experiment [3]; at Heme oxygenase 2; in experiment [4]; on TGF-beta receptor type-2) was > 30 µM (inactive) throughout. For the same compound, the Kd (in experiment [5]; on Ephrin type-B receptor 2) was > 30 µM (inactive) in each case.

Turning to `O=C(Nc1cc(C(F)(F)F)cc(C(F)(F)F)c1)c1cc(Cl)ccc1O` [IMD-0354], the Kd (in experiment [1]; in experiment [2]; in experiment [3]; at Heme oxygenase 2; in experiment [4]; at TGF-beta receptor type-2) was > 30 µM (inactive) throughout. For the same compound, the Kd (in experiment [5]; on Ephrin type-B receptor 2) was > 30 µM (inactive) throughout.

For `CNC(=O)c1cccc2cc(Oc3ccnc4cc(OCC5(N)CC5)c(OC)cc34)ccc12` [LUCITANIB], the Kd (in experiment [1]; in experiment [2]; in experiment [3]; at Heme oxygenase 2; in experiment [4]; at TGF-beta receptor type-2) was > 30 µM (inactive) each time. Moreover, the Kd (in experiment [5]; on Ephrin type-B receptor 2) was > 30 µM (inactive) each time.
